Measurements as given in article PMC11589570, “Critical assessment of LC3/GABARAP ligands used for degrader development and ligandability of LC3/GABARAP binding pockets” (Nature Communications, 2024).
Several values for one entry are separate records, joined by “and”; a condition that tells them apart may be missing. Equal entries are not always repeated. Each block holds one compound with its values, some of them ahead of it.

Assays:
[1] = target: LC3A (Homo sapiens, UniProt Q9H492); assay: FP assay with Cy5-labelled p62 LIR tracer (protein titration and tracer displacement); type: binding; settings: LC3A tracer displacement, normalized on p62-LIR positive control
[2] = test system: RPE1 cells; assay: Cell growth assay (IncuCyte confluence over 72 h); type: cell-based
Method: (§1) Cell growth assay: Cell confluence (phase) from RPE1 (hTERT RPE-1, ATCC CLR_4000) or U2OS (ATCC, HTB-96) cell lines were monitored over time with the IncuCyte S3 (Sartiorius, Germany) in 384-well plates in 50 ul DMEM media, supplemented with 10% Fetal Bovine Serum (FBS) 1% penicillin/Streptomycin and incubated 24 h before treatment. Experiment was performed as described in Cano-Franco et al.. 50 μl of media containing either 2× final concentration of indicated compounds in or control compounds (final conc.: 0.1% DMSO, 250 nM Torin1, 200 ng/mL Bafilomycin) were added and images were taken every two hours over 72 h. Cell confluence is represented as % of area covered by cells. Each data point represents the average ratio or confluence obtained from three individual wells of the plate.

[3] = test system: U2OS cells; assay: Cell growth assay (IncuCyte confluence over 72 h); type: cell-based; set-up: key to U2OS cell growth: % of well area covered by cells (confluence)
Method: as §1, with “50 μl of media containing either 2× final concentration of indicated compounds in or control compounds (final conc.: 0.1% DMSO, 250 nM Torin1, 200 ng/mL Bafilomycin) were added and images were taken every two hours over 72 h.” left out

Structure (SMILES): CCCCCCC(Sc1nc(Cl)cc(Nc2nc(-c3ccc(-c4ccccc4)cc3)cs2)n1)C(=O)O (stereo not shown) [TH104]
% tracer bound @LC3A [1]: 82%

Structure (SMILES): CCCCCCC(Sc1nc(Cl)cc(Nc2nc(-c3ccc(F)cc3F)cs2)n1)C(=O)O (stereo not shown) [TH054]
% tracer bound @LC3A [1]: 75%

Structure (SMILES): CCCCCCC(Sc1nc(Cl)cc(Nc2nc(-c3ccc4ccccc4c3)cs2)n1)C(=O)O (stereo not shown) [TH034]
% tracer bound @LC3A [1]: 79%

Structure (SMILES): O=C1CC(c2ccc(Cl)c(Cl)c2)CC(=O)C1=CNCCN1CCNCC1 (stereo not shown) [Cov-3]
RPE1 cell growth ([2]; 100 nM, 0 h): 12 and 21 and 11
RPE1 cell growth ([2]; 100 nM, 2 h): 14 and 25 and 13
RPE1 cell growth ([2]; 100 nM, 6 h): 19 and 28 and 14
RPE1 cell growth ([2]; 100 nM, 12 h): 20 and 32 and 17
RPE1 cell growth ([2]; 500 nM, 0 h): 15 and 23 and 13
RPE1 cell growth ([2]; 500 nM, 2 h): 16 and 27 and 14
RPE1 cell growth ([2]; 500 nM, 6 h): 20 and 32 and 17
RPE1 cell growth ([2]; 500 nM, 10 h): 21 and 34 and 17
RPE1 cell growth ([2]; 500 nM, 12 h): 23 and 35 and 18
RPE1 cell growth ([2]; 1 uM, 0 h): 13 and 24
RPE1 cell growth ([2]; 1 uM, 8 h): 16 and 20 and 31
RPE1 cell growth ([2]; 1 uM, 10 h): 17 and 18 and 32
RPE1 cell growth ([2]; 1 uM, 12 h): 18 and 19 and 34
RPE1 cell growth ([2]; 3 uM, 0 h): 16 and 20 and 13
RPE1 cell growth ([2]; 3 uM, 2 h): 21 and 23 and 14
RPE1 cell growth ([2]; 3 uM, 4 h): 23 and 26 and 14
RPE1 cell growth ([2]; 3 uM, 6 h): 24 and 27 and 16
RPE1 cell growth ([2]; 3 uM, 8 h): 24 and 29 and 17
RPE1 cell growth ([2]; 3 uM, 10 h): 23 and 29 and 18
RPE1 cell growth ([2]; 3 uM, 12 h): 26 and 31 and 20
RPE1 cell growth ([2]; 5 uM, 0 h): 16 and 20 and 13
RPE1 cell growth ([2]; 5 uM, 2 h): 20 and 24 and 15
RPE1 cell growth ([2]; 5 uM, 4 h): 22 and 26 and 15
RPE1 cell growth ([2]; 5 uM, 6 h): 23 and 28 and 18
RPE1 cell growth ([2]; 5 uM, 8 h): 24 and 30 and 18
RPE1 cell growth ([2]; 5 uM, 10 h): 22 and 29 and 19
RPE1 cell growth ([2]; 5 uM, 12 h): 23 and 32 and 20
RPE1 cell growth ([2]; 10 uM, 0 h): 16 and 20 and 13
RPE1 cell growth ([2]; 10 uM, 2 h): 19 and 23 and 17
RPE1 cell growth ([2]; 10 uM, 4 h): 22 and 25 and 18
RPE1 cell growth ([2]; 10 uM, 6 h): 22 and 29 and 20
RPE1 cell growth ([2]; 10 uM, 8 h): 24 and 31 and 21
RPE1 cell growth ([2]; 10 uM, 10 h): 23 and 30
RPE1 cell growth ([2]; 10 uM, 12 h): 26 and 32 and 23
U2OS cell growth ([3]; 100 nM, time 10 h): 33.6743 and 37.4722 and 28.8223
U2OS cell growth ([3]; 100 nM, time 0 h): 14.5416 and 22.9345 and 12.3076
U2OS cell growth ([3]; 100 nM, time 2 h): 20.4728 and 24.9456 and 18.1328
U2OS cell growth ([3]; 100 nM, time 4 h): 32.466 and 35.1005 and 23.9495
U2OS cell growth ([3]; 100 nM, time 6 h): 27.7123 and 37.9082 and 23.0201
U2OS cell growth ([3]; 100 nM, time 8 h): 36.178 and 29.1087 and 28.1634
U2OS cell growth ([3]; 500 nM, time 0 h): 19.4597 and 15.6761 and 23.7515
U2OS cell growth ([3]; 500 nM, time 2 h): 17.2401 and 19.2948 and 26.8842
U2OS cell growth ([3]; 500 nM, time 4 h): 23.0548 and 20.6729 and 33.4847
U2OS cell growth ([3]; 500 nM, time 6 h): 31.9275 and 22.0748 and 27.2708
U2OS cell growth ([3]; 500 nM, time 8 h): 20.0458 and 23.4357 and 28.1267
U2OS cell growth ([3]; 1 uM, time 10 h): 29.6152
U2OS cell growth ([3]; 1 uM, time 0 h): 18.8183 and 26.6645 and 23.9984
U2OS cell growth ([3]; 1 uM, time 2 h): 21.0614 and 26.8371 and 29.3905
U2OS cell growth ([3]; 1 uM, time 4 h): 24.6352 and 31.1306 and 32.3496
U2OS cell growth ([3]; 1 uM, time 6 h): 26.5224 and 36.4121 and 30.4909
U2OS cell growth ([3]; 1 uM, time 8 h): 20.3314 and 37.2236 and 29.7059
U2OS cell growth ([3]; 3 uM, time 0 h): 36.1248 and 21.9705 and 35.4647
U2OS cell growth ([3]; 3 uM, time 2 h): 38.4423 and 25.3153 and 30.1014
U2OS cell growth ([3]; 3 uM, time 4 h): 41.4594 and 31.6601 and 38.4044
U2OS cell growth ([3]; 3 uM, time 6 h): 35.1153 and 23.5308 and 36.0085
U2OS cell growth ([3]; 3 uM, time 8 h): 37.1896 and 25.2973 and 34.3262
U2OS cell growth ([3]; 5 uM, time 10 h): 45.8479 and 32.8378 and 36.0561
U2OS cell growth ([3]; 5 uM, time 0 h): 35.0072 and 29.5152 and 28.3077
U2OS cell growth ([3]; 5 uM, time 2 h): 34.3656 and 30.4257 and 30.1228
U2OS cell growth ([3]; 5 uM, time 4 h): 36.9905 and 31.4377 and 28.9247
U2OS cell growth ([3]; 5 uM, time 6 h): 42.578 and 38.6163 and 31.6899
U2OS cell growth ([3]; 5 uM, time 8 h): 38.0361 and 32.4495 and 27.1279
U2OS cell growth ([3]; 10 uM, time 10 h): 36.2219 and 24.7441 and 23.9347
U2OS cell growth ([3]; 10 uM, time 0 h): 31.5761 and 18.5024 and 22.4964
U2OS cell growth ([3]; 10 uM, time 2 h): 30.3213 and 20.7145 and 20.7242
U2OS cell growth ([3]; 10 uM, time 4 h): 34.613 and 22.1736 and 25.1322
U2OS cell growth ([3]; 10 uM, time 6 h): 35.028 and 21.2307 and 23.3926
U2OS cell growth ([3]; 10 uM, time 8 h): 32.1571 and 22.7698 and 18.9042

Structure (SMILES): COc1ccc(CN(CC2CCCCC2)S(=O)(=O)c2ccc(C(=O)O)cc2)cc1 [TH119]
% tracer bound @LC3A [1]: 92%

Structure (SMILES): COc1ccc(CN(Cc2cccc(C#N)c2)S(=O)(=O)c2ccc(C(=O)O)cc2)cc1 [TH061]
% tracer bound @LC3A [1]: 83%

Structure (SMILES): CCCCCCC(Sc1nc(Cl)cc(Nc2nc(-c3ccc(Br)cc3)cs2)n1)C(=O)O (stereo not shown) [TH026]
% tracer bound @LC3A [1]: 79%

Structure (SMILES): CCCCCCC(Sc1nc2ccc(NC(=O)c3ccc(-c4ccccc4)cc3)cc2s1)C(=O)O (stereo not shown) [TH181]
% tracer bound @LC3A [1]: 78%

Structure (SMILES): CCCCCCC(Sc1nc2ccc(NCc3ccc4ccccc4c3)cc2s1)C(=O)O (stereo not shown) [TH191]
% tracer bound @LC3A [1]: 78%

Structure (SMILES): Cc1ccc(NS(=O)(=O)c2ccc(C(=O)N(C)Cc3ccccc3)cc2)cc1 [TH281]
% tracer bound @LC3A [1]: 95%

Structure (SMILES): CN(Cc1ccccc1)C(=O)c1ccc(S(=O)(=O)Nc2ccccc2)cc1 [TH676]
% tracer bound @LC3A [1]: 84%

Structure (SMILES): CCCCCCC(Sc1nc(Cl)cc(Nc2nc(-c3ccc(Cl)cc3)cs2)n1)C(=O)O (stereo not shown) [TH018]
% tracer bound @LC3A [1]: 81%

Structure (SMILES): CCCCCCC(Sc1nc2ccc(NCc3ccc(Cl)c(Cl)c3)cc2s1)C(=O)O (stereo not shown) [TH198]
% tracer bound @LC3A [1]: 79%

Structure (SMILES): CCCCC(Sc1nc2ccc(NC(=O)c3ccc(C(C)(C)C)cc3)cc2s1)C(=O)O (stereo not shown) [TH188]
% tracer bound @LC3A [1]: 89%

Structure (SMILES): CCCCCCC(Sc1nc(Cl)cc(Nc2nc(-c3ccc([N+](=O)[O-])cc3)cs2)n1)C(=O)O (stereo not shown) [TH056]
% tracer bound @LC3A [1]: 61%

Structure (SMILES): CCN(Cc1ccccc1)C(=O)c1ccc(S(=O)(=O)Nc2ccccc2)cc1 [TH677]
% tracer bound @LC3A [1]: 87%

Structure (SMILES): CCCCCCC(Sc1nc(Cl)cc(Nc2nc(-c3ccc(F)c(F)c3)cs2)n1)C(=O)O (stereo not shown) [TH044]
% tracer bound @LC3A [1]: 76%

Continued, values first:

% tracer bound @LC3A [1]: 82%
Structure (SMILES): CCCCCCC(Sc1nc2ccc(NCc3ccc(C(C)(C)C)cc3)cc2s1)C(=O)O (stereo not shown) [TH185]

% tracer bound @LC3A [1]: 84%
Structure (SMILES): CCCCCCC(Sc1nc(Cl)cc(Nc2nc(-c3ccc(Cl)c(Cl)c3)cs2)n1)C(=O)O (stereo not shown) [TH083]

% tracer bound @LC3A [1]: 72%
Structure (SMILES): CCCCCCC(Sc1nc2ccc(NCc3ccc(-c4ccccc4)cc3)cc2s1)C(=O)O (stereo not shown) [TH200]

% tracer bound @LC3A [1]: 76%
Structure (SMILES): CCCCCCC(Sc1nc(Cl)cc(Nc2nc(-c3ccc(C(F)(F)F)cc3)cs2)n1)C(=O)O (stereo not shown) [TH084]

% tracer bound @LC3A [1]: 78%
Structure (SMILES): CCCCCCC(Sc1nc2ccc(NCc3ccccc3)cc2s1)C(=O)O (stereo not shown) [TH195]

% tracer bound @LC3A [1]: 85%
Structure (SMILES): CCC(Sc1nc(Cl)cc(Nc2nc(-c3ccc(Cl)cc3)cs2)n1)C(=O)O (stereo not shown) [TH035]

% tracer bound @LC3A [1]: 85%
Structure (SMILES): CCCCCCC(Sc1nc2ccc(NC(=O)c3ccc(C(C)(C)C)cc3)cc2s1)C(=O)O (stereo not shown) [TH177]

% tracer bound @LC3A [1]: 84%
Structure (SMILES): CCCCCCC(Sc1nc(Cl)cc(Nc2nc(-c3ccccc3)cs2)n1)C(=O)O (stereo not shown) [TH020]

% tracer bound @LC3A [1]: 88%
Structure (SMILES): O=C(NCc1ccccc1)c1ccc(S(=O)(=O)Nc2ccccc2)cc1 [TH253]

% tracer bound @LC3A [1]: 76%
Structure (SMILES): CCCCCCC(Sc1nc(Cl)cc(Nc2nc3c(s2)CCc2cc(OC)ccc2-3)n1)C(=O)O (stereo not shown) [TH062]

% tracer bound @LC3A [1]: 82%
Structure (SMILES): CCC(Sc1nc(Cl)cc(Nc2nc(-c3ccc4ccccc4c3)cs2)n1)C(=O)O (stereo not shown) [TH107]

% tracer bound @LC3A [1]: 82%
Structure (SMILES): O=C(O)c1ccc(S(=O)(=O)N(Cc2ccc(Oc3ccccc3)cc2)CC2CCCCC2)cc1 [TH133]

% tracer bound @LC3A [1]: 77%
Structure (SMILES): CCCCCCC(Sc1nc(Cl)cc(Nc2nc(-c3ccccc3)c(CC)s2)n1)C(=O)O (stereo not shown) [TH100]

% tracer bound @LC3A [1]: 78%
Structure (SMILES): CCCCCCC(Sc1nc(Cl)cc(Nc2nc(-c3ccc(Cl)cc3Cl)cs2)n1)C(=O)O (stereo not shown) [TH102]

% tracer bound @LC3A [1]: 83%
Structure (SMILES): CCCCCCC(Sc1nc(Cl)cc(Nc2nc(-c3ccc(OC)cc3)cs2)n1)C(=O)O (stereo not shown) [TH121]

% tracer bound @LC3A [1]: 84%
Structure (SMILES): CCCCCCC(Sc1nc(Cl)cc(Nc2nc(C34CC5CC(CC(C5)C3)C4)cs2)n1)C(=O)O (stereo not shown) [TH105]
